Test results published in paper PMC11200585, “Prospects for Prostate Cancer Chemotherapy: Cytotoxic Evaluation and Mechanistic Insights of Quinolinequinones with ADME/PK Profile” (Biomedicines, 2024).

Legend:
Format in all cases: cell-based, human
[1] = test system: DU-145 cells; experiment: Apoptosis necrosis analysis (Annexin V-FITC / PI flow cytometry); conditions: 1, 2.5, 5 µM, 24 h
Protocol: To assess cellular apoptosis and necrosis, a fluorochrome-labelled Annexin V (FITC) and Propidium Iodide (PI) staining kit (SONY Biotechnology, San Jose, CA, USA) was used according to the manufacturer’s protocol. DU-145 cells were initially seeded at a density of 1 × 10^6 cells per well in 6-well plates. After an incubation period, the cells were treated with varying concentrations of AQQ1 (1, 2.5, and 5 µM) along with negative control for 24 h. Then, the cells were detached using trypsin and then suspended in 500 µL of 1× Binding Buffer. Subsequently, 3 µL of Propidium Iodide (PI) and 5 µL of Annexin V-FITC were added to the cell suspension, followed by a 15 min incubation at room temperature in the dark. Post-incubation, cell analysis was performed via flow cytometry using the BD FACS Calibur Flow Cytometry System. The percentages of apoptotic and necrotic cells were determined using BD CellQuest Pro Software version 5.1 (both from Becton Dickinson, Sunnyvale, CA, USA).

[2] = test system: DU-145 cells; experiment: Cell cycle assay (flow cytometry, PI); conditions: 24 h, highest concentrations
Protocol: Cells were subjected to AQQ1 and DOXO treatments as previously described for apoptosis necrosis analysis. For cell cycle analysis, a cell population of 1 × 10^6 was collected, centrifuged, and the supernatant was removed. The resulting cellular pellet was re-suspended in 70% cold ethanol in PBS. Subsequently, the cells underwent a single PBS wash, followed by incubation in PBS containing […] PI (Sigma-Aldrich, St. Louis, MO, USA) and 2 mg/mL DNase-free RNase-A (Affymetrix, Inc., Santa Barbara, CA, USA) for 30 min at room temperature in a light-protected environment. Analysis was performed using the BD FACS Calibur Flow Cytometry System, and the BD CellQuest Pro Software software (version 5.1, Becton Dickinson, USA) was employed to determine cell cycle phase distributions in comparison to the control group.

[3] = test system: RXF 393; experiment: NCI-60 one-dose screen (renal cancer); conditions: 10 µM single dose, 48 h
[4] = test system: CAKI-1; experiment: NCI-60 one-dose screen (renal cancer); conditions: 10 µM single dose, 48 h

Compound: COc1ccccc1NC1=C(Cl)C(=O)c2nc(C)ccc2C1=O [AQQ1]
- live and necrotic cell counts [1]: reduced live cell counts and increased necrotic cells
- population of cells in the G0/G1 phase [2]: significantly increased the population of cells in the G0/G1 phase

Compound: COc1cc(NC2=C(Cl)C(=O)c3nc(C)ccc3C2=O)cc(OC)c1 [AQQ5]
- GP (growth percentage) [3]: −97.24%
- GP (growth percentage) [4]: −96.53%
